Reference: patent publication US20140163012A1, “PYRIDO-/AZEPINO-BENZOFURAN AND PYRIDO-/AZEPINO-BENZOTHIOPHENE MCH-1 ANTAGONISTS, METHODS OF MAKING, AND USE THEREOF” (Albany Molecular Research, Inc., priority 2012, published 2014)
Counter-ions that a name gives are not always drawn.

Molecular target: human MCH-1 receptor (Homo sapiens, UniProt Q99705)
Assay: Binding assay for human melanin-concentrating hormone (MCH-1) receptor, radioligand displacement on CHO-K1 cell membranes
Description: Nonspecific binding was determined in the presence of 50 μM 1-(5-(4-cyanophenyl)bicyclo[3.1.0]hexan-2-yl)-3-(4-fluoro-3-(trifluoromethyl)phenyl)-1-(3-(4-methylpiperazin-1-yl)propyl)urea. […] The filters were counted for radioactivity in a liquid scintillation counter (Tri-Carb 2100TR, Packard) using a scintillation cocktail (Ultima Gold MV, Perkin Elmer).
The results are expressed as a percent inhibition of the control radioligand specific binding. The IC50 value (concentration causing a half-maximal inhibition of control specific binding) and Hill coefficient (nH) were determined by non-linear regression analysis of the competition curve using Hill equation curve fitting.

human MCH-1 receptor, sequence (Q99705 whole entry): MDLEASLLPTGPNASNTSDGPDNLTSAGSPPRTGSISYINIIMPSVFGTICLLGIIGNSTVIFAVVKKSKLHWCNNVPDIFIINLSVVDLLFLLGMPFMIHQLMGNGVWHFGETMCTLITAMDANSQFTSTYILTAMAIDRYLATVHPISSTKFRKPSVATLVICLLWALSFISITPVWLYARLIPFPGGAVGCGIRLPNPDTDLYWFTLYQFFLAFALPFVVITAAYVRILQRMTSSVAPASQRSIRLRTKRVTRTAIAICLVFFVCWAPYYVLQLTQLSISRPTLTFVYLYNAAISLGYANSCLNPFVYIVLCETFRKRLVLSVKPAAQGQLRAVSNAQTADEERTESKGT

Ki [nM]	SMILES
23	O=c1cc(OCc2ccccc2)ccn1-c1ccc2c3c(oc2c1)CNCC3 [Example 2, 4-(Benzyloxy)-1-(1,2,3,4-tetrahydrobenzofuro[2,3-c]pyridin-7-yl)pyridin-2(1H)-one hydrochloride]
59	O=c1cc(OCc2ccc(F)cn2)ccn1-c1ccc2c3c(oc2c1)CNCC3 [Example 3, 4-((5-Fluoropyridin-2-yl)methoxy)-1-(1,2,3,4-tetrahydrobenzofuro[2,3-c]pyridin-7-yl)pyridin-2(1H)-one hydrochloride]
1310	O=c1cc(-c2ccc(C(F)(F)F)nc2)ccn1-c1ccc2c3c(oc2c1)CNCC3 [Example 4, 1′-(1,2,3,4-Tetrahydrobenzofuro[2,3-c]pyridin-7-yl)-6-(trifluoromethyl)-[3,4′-bipyridin]-2′(1′H)-one hydrochloride]
56	O=c1cc(-c2ccc(C(F)(F)F)nc2)ccn1-c1ccc2c3c(oc2c1)CCNC3 [Example 5, 1′-(1,2,3,4-Tetrahydrobenzofuro[3,2-c]pyridin-7-yl)-6-(trifluoromethyl)-[3,4′-bipyridin]-2′(1′H)-one hydrochloride]
3.3	O=c1cc(OCc2ccccc2)ccn1-c1ccc2c3c(oc2c1)CCNC3 [Example 6, 4-(Benzyloxy)-1-(1,2,3,4-tetrahydrobenzofuro[3,2-c]pyridin-7-yl)pyridin-2(1H)-one hydrochloride]
7.3	O=c1cc(OCc2ccc(F)cn2)ccn1-c1ccc2c3c(oc2c1)CCNC3 [Example 7, 4-((5-Fluoropyridin-2-yl)methoxy)-1-(1,2,3,4-tetrahydrobenzofuro[3,2-c]pyridin-7-yl)pyridin-2(1H)-one hydrochloride]
57	C[C@@H]1Cc2oc3cc(-n4ccc(OCc5ccccn5)cc4=O)ccc3c2CN1 [Example 8, (R)-1-(3-Methyl-1,2,3,4-tetrahydrobenzofuro[3,2-c]pyridin-7-yl)-4-(pyridin-2-ylmethoxy)pyridin-2(1H)-one hydrochloride]
10	C[C@@H]1Cc2oc3cc(-n4ccc(OCc5ccc(F)cn5)cc4=O)ccc3c2CN1 [Example 9, (R)-4-((5-Fluoropyridin-2-yl)methoxy)-1-(3-methyl-1,2,3,4-tetrahydrobenzofuro[3,2-c]pyridin-7-yl)pyridin-2(1H)-one]
3.3	O=c1cc(OCc2ccc(Cl)cn2)ccn1-c1ccc2c3c(oc2c1)CCNC3 [Example 10, 4-((5-Chloropyridin-2-yl)methoxy)-1-(1,2,3,4-tetrahydrobenzofuro[3,2-c]pyridin-7-yl)pyridin-2(1H)-one hydrochloride]
166	O=c1cc(-c2ccc(C(F)(F)F)cn2)ccn1-c1ccc2c3c(oc2c1)CCNC3 [Example 11, 1′-(1,2,3,4-Tetrahydrobenzofuro[3,2-c]pyridin-7-yl)-5-(trifluoromethyl)-[2,4′-bipyridin]-2′(1′H)-one hydrochloride]
93	O=c1cc(-c2ccc(C(F)(F)F)cn2)ccn1-c1ccc2c3c(sc2c1)CNCC3 [Example 12, 1-(1,2,3,4-Tetrahydrobenzothieno[2,3-c]pyridin-7-yl)-4-(5-(trifluoromethyl)pyridin-2-yl)pyridin-2(1H)-one hydrochloride]
3.1	O=c1cc(OCc2ccc(Cl)cn2)ccn1-c1ccc2c3c(sc2c1)CNCC3 [Example 13, 4-((5-Chloropyridin-2-yl)methoxy)-1-(1,2,3,4-tetrahydrobenzothieno[2,3-c]pyridin-7-yl)pyridin-2(1H)-one hydrochloride]
6.2	O=c1cc(OCc2ccc(F)cn2)ccn1-c1ccc2c3c(sc2c1)CNCC3 [Example 14, 4-((5-Fluoropyridin-2-yl)methoxy)-1-(1,2,3,4-tetrahydrobenzothieno[2,3-c]pyridin-7-yl)pyridin-2(1H)-one hydrochloride]
4	O=c1cc(OCc2ccccc2)ccn1-c1ccc2c3c(sc2c1)CNCC3 [Example 15, 4-(Benzyloxy)-1-(1,2,3,4-tetrahydrobenzothieno[2,3-c]pyridin-7-yl)pyridin-2(1H)-one]
927	O=c1cc(-c2ccc(C(F)(F)F)cn2)ccn1-c1ccc2c3c(sc2c1)CNCCC3 [Example 17, 1-(2,3,4,5-Tetrahydro-1H-benzothieno[2,3-c]azepin-8-yl)-4-(5-(trifluoromethyl)pyridin-2-yl)pyridin-2(1H)-one]
12	O=c1cc(OCc2ccc(F)cn2)ccn1-c1ccc2c3c(sc2c1)CNCCC3 [Example 18, 4-((5-Fluoropyridin-2-yl)methoxy)-1-(2,3,4,5-tetrahydro-1H-benzothieno[2,3-c]azepin-8-yl)pyridin-2(1H)-one]
8.2	O=c1cc(OCc2ccccc2)ccn1-c1ccc2c3c(sc2c1)CNCCC3 [Example 19, 4-(Benzyloxy)-1-(2,3,4,5-tetrahydro-1H-benzothieno[2,3-c]azepin-8-yl)pyridin-2(1H)-one]
3.8	O=c1cc(OCc2ccc(Cl)cn2)ccn1-c1ccc2c3c(sc2c1)CCNCC3 [Example 20, 4-((5-Chloropyridin-2-yl)methoxy)-1-(2,3,4,5-tetrahydro-1H-benzothieno[2,3-d]azepin-8-yl)pyridin-2(1H)-one]

Ki [nM]	SMILES
3.8	O=c1cc(OCc2ccc(F)cn2)ccn1-c1ccc2c3c(sc2c1)CCNCC3 [Example 21, 4-((5-Fluoropyridin-2-yl)methoxy)-1-(2,3,4,5-tetrahydro-1H-benzothieno[2,3-d]azepin-8-yl)pyridin-2(1H)-one]
4.4	O=c1cc(OCc2ccccc2)ccn1-c1ccc2c3c(sc2c1)CCNCC3 [Example 22, 4-(Benzyloxy)-1-(2,3,4,5-tetrahydro-1H-benzothieno[2,3-d]azepin-8-yl)pyridin-2(1H)-one]
11	CN1CCc2oc3cc(-n4ccc(OCc5ccc(F)cn5)cc4=O)ccc3c2C1 [Example 23, 4-((5-Fluoropyridin-2-yl)methoxy)-1-(2-methyl-1,2,3,4-tetrahydrobenzofuro[3,2-c]pyridin-7-yl)pyridin-2(1H)-one hydrochloride]
13	CCN1CCc2oc3cc(-n4ccc(OCc5ccc(F)cn5)cc4=O)ccc3c2C1 [Example 24, 1-(2-Ethyl-1,2,3,4-tetrahydrobenzofuro[3,2-c]pyridin-7-yl)-4-((5-fluoropyridin-2-yl)methoxy)pyridin-2(1H)-one]
23	CC(=O)N1CCc2oc3cc(-n4ccc(OCc5ccccc5)cc4=O)ccc3c2C1 [Example 25, 1-(2-Acetyl-1,2,3,4-tetrahydrobenzofuro[3,2-c]pyridin-7-yl)-4-(benzyloxy)pyridin-2(1H)-one]
4.9	CCN1CCc2oc3cc(-n4ccc(OCc5ccccc5)cc4=O)ccc3c2C1 [Example 26, 4-(Benzyloxy)-1-(2-ethyl-1,2,3,4-tetrahydrobenzofuro[3,2-c]pyridin-7-yl)pyridin-2(1H)-one]
8.1	CN1CCc2oc3cc(-n4ccc(OCc5ccccc5)cc4=O)ccc3c2C1 [Example 27, 4-(Benzyloxy)-1-(2-methyl-1,2,3,4-tetrahydrobenzofuro[3,2-c]pyridin-7-yl)pyridin-2(1H)-one hydrochloride]
9.8	CC(C)N1CCc2oc3cc(-n4ccc(OCc5ccc(F)cn5)cc4=O)ccc3c2C1 [Example 28, 4-((5-Fluoropyridin-2-yl)methoxy)-1-(2-isopropyl-1,2,3,4-tetrahydrobenzofuro[3,2-c]pyridin-7-yl)pyridin-2(1H-one hydrochloride]
46	CC(=O)N1CCc2oc3cc(-n4ccc(OCc5ccc(F)cn5)cc4=O)ccc3c2C1 [Example 29, 1-(2-Acetyl-1,2,3,4-tetrahydrobenzofuro[3,2-c]pyridin-7-yl)-4-((5-fluoropyridin-2-yl)methoxy)pyridin-2(1H)-one]
9	CC(C)N1CCc2oc3cc(-n4ccc(OCc5ccccc5)cc4=O)ccc3c2C1 [Example 30, 4-(Benzyloxy)-1-(2-isopropyl-1,2,3,4-tetrahydrobenzofuro[3,2-c]pyridin-7-yl)pyridin-2(1H)-one hydrochloride]
23	O=c1cc(OCc2cccc(C(F)(F)F)n2)ccn1-c1ccc2c3c(oc2c1)CCNC3 [Example 31, 1-(1,2,3,4-Tetrahydrobenzofuro[3,2-c]pyridin-7-yl)-4-((6-(trifluoromethyl)pyridin-2-yl)methoxy)pyridin-2(1H)-one hydrochloride]
7.4	C[C@H]1Cc2oc3cc(-n4ccc(OCc5ccccc5)cc4=O)ccc3c2CN1 [Example 32, (S)-4-(Benzyloxy)-1-(3-methyl-1,2,3,4-tetrahydrobenzofuro[3,2-c]pyridin-7-yl)pyridin-2(1H)-one hydrochloride]
6	C[C@@H]1NCCc2oc3cc(-n4ccc(OCc5ccccc5)cc4=O)ccc3c21 [Example 33, (S)-4-(Benzyloxy)-1-(1-methyl-1,2,3,4-tetrahydrobenzofuro[3,2-c]pyridin-7-yl)pyridin-2(1H)-one hydrochloride]
38	C[C@H]1Cc2oc3cc(-n4ccc(OCc5ccccn5)cc4=O)ccc3c2CN1 [Example 34, (S)-1-(3-Methyl-1,2,3,4-tetrahydrobenzofuro[3,2-c]pyridin-7-yl)-4-(pyridin-2-ylmethoxy)pyridin-2(1H)-one hydrochloride]
57	C[C@@H]1NCCc2oc3cc(-n4ccc(OCc5ccccn5)cc4=O)ccc3c21 [Example 35, (S)-1-(1-Methyl-1,2,3,4-tetrahydrobenzofuro[3,2-c]pyridin-7-yl)-4-(pyridin-2-ylmethoxy)pyridin-2(1H)-one hydrochloride]
39	O=c1cc(-c2ccc(C(F)(F)F)cn2)ccn1-c1ccc2c3c(oc2c1)CCCNC3 [Example 36, 1-(2,3,4,5-Tetrahydro-1H-benzofuro[3,2-c]azepin-8-yl)-4-(5-(trifluoromethyl)pyridin-2-yl)pyridin-2(1H)-one hydrochloride]
4.5	O=c1cc(OCc2ccc(F)cn2)ccn1-c1ccc2c3c(oc2c1)CCCNC3 [Example 37, 4-((5-Fluoropyridin-2-yl)methoxy)-1-(2,3,4,5-tetrahydro-1H-benzofuro[3,2-c]azepin-8-yl)pyridin-2(1H)-one hydrochloride]
3	O=c1cc(OCc2ccc(Cl)cn2)ccn1-c1ccc2c3c(oc2c1)CCCNC3 [Example 38, 4-((5-Chloropyridin-2-yl)methoxy)-1-(2,3,4,5-tetrahydro-1H-benzofuro[3,2-c]azepin-8-yl)pyridin-2(1H)-one hydrochloride]
